What is called IC50 is the concentration at which inhibition is half-maximal.

SMILES strings stand for the structures.

For the assay, the target named is GSK 3α (Homo sapiens (Human), UniProt P49840). Put plainly: GSK 3α enzyme inhibition (Method 2), Z-LYTE FRET. In kind it is biochemical. As to conditions: read-out: IC50 Values for Enzyme Inhibition GSK3α. Here is the method: The enzyme inhibitory activities of compounds disclosed herein are determined by FRET using synthetic peptides labelled with both donor and acceptor fluorophores (Z-LYTE, Invitrogen Ltd., Paisley, UK).
Chain of GSK 3α (P49840 whole entry): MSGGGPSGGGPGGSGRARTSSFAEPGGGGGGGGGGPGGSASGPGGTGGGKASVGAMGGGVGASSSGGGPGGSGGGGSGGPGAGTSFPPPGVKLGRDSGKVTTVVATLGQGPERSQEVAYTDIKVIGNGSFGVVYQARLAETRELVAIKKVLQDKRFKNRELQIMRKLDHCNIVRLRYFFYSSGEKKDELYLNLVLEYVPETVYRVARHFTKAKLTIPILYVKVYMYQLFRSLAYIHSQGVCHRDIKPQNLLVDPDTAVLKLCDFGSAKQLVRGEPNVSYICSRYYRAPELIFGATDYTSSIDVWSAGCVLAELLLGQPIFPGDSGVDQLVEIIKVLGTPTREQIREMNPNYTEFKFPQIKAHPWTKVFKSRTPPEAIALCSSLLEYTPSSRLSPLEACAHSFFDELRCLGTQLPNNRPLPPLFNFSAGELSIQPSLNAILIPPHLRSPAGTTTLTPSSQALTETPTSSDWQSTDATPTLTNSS
The following two assay variants can be used for determination of GSK 3α inhibition.
The inhibitory activities of compounds of the invention against the GSK 3α enzyme isoform (Invitrogen), are evaluated by determining the level of activation/phosphorylation of the target peptide. The GSK3-α protein (500 ng/mL, 2.5 μL) is mixed with the test compound (2.5 μL at either 4 μg/mL, 0.4 μg/mL, 0.04 μg/mL, or 0.004 μg/mL) for 2 hr at RT. The FRET peptide (8 μM, 2.5 μL), which is a phosphorylation target for GSK3α, and ATP (40 μM, 2.5 μL) are then added to the enzyme/compound mixture and the resulting mixture incubated for 1 hr. Development reagent (protease, 5 μL) is added for 1 hr prior to detection in a fluorescence microplate reader (Varioskan® Flash, ThermoFisher Scientific).
In all cases, the site-specific protease cleaves non-phosphorylated peptide only and eliminates the FRET signal. Phosphorylation levels of each reaction are calculated using the ratio of coumarin emission (donor) over fluorescein emission (acceptor), for which high ratios indicate high phosphorylation and low ratios indicate low phosphorylation levels.
This method follows the same steps as Method 1 above, but utilises a shorter period of mixing of the test compound (105 minutes instead of 2 hours) with the GSK3-α protein. In addition, the concentrations of test compound employed are either 10 μg/mL, 1 μg/mL, 0.1 μg/mL, or 0.01 μg/mL
With `COc1cc(Nc2cc(Oc3ccc(NC(=O)Nc4cc(C(C)(C)C)cc(NS(C)(=O)=O)c4OC)c4ccccc34)ccn2)ccc1C(=O)NCCN1CCOC(C)(C)C1` [17(d), 4-[[4-[[4-[[5-tert-butyl-3-(methanesulfonamido)-2-methoxy-phenyl]carbamoylamino]-1-naphthyl]oxy]-2-pyridyl]amino]-N-[2-(2,2-dimethylmorpholin-4-yl)ethyl]-2-methoxy-benzamide], the IC50 is greater than 11.9 µM.
With `COc1cc(Nc2cc(Oc3ccc(NC(=O)Nc4cc(C(C)(C)C)cc(NS(C)(=O)=O)c4OC)c4ccccc34)ccn2)ccc1C(=O)NCC(=O)N1CCOCC1` [17(e), 4-[[4-[[4-[[5-tert-butyl-3-(methanesulfonamido)-2-methoxy-phenyl]carbamoylamino]-1-naphthyl]oxy]-2-pyridyl]amino]-2-methoxy-N-(2-morpholino-2-oxo-ethyl)benzamide], the IC50 worked out at 7.42 µM.
To `COc1cc(Nc2cc(Oc3ccc(NC(=O)Nc4cc(C(C)(C)C)cc(NS(C)(=O)=O)c4OC)c4ccccc34)ccn2)ccc1C(=O)NCCN1CCCN(C)CC1` [17(f), 4-[[4-[[4-[[5-tert-butyl-3-(methanesulfonamido)-2-methoxy-phenyl]carbamoylamino]-1-naphthyl]oxy]-2-pyridyl]amino]-2-methoxy-N-[2-(4-methyl-1,4-diazepan-1-yl)ethyl]benzamide] belongs 1.09 µM; to `COCCOCCOC[C@@H](C)NC(=O)c1ccc(Nc2cc(Oc3ccc(NC(=O)Nc4cc(C(C)(C)C)cc(NS(C)(=O)=O)c4OC)c4ccccc34)ccn2)cc1OC` [17(g), 4-[[4-[[4-[[5-tert-butyl-3-(methanesulfonamido)-2-methoxy-phenyl]carbamoylamino]-1-naphthyl]oxy]-2-pyridyl]amino]-2-methoxy-N-[(1R)-2-[2-(2-methoxyethoxy)ethoxy]-1-methyl-ethyl]benzamide], 4.1 µM; to `COCCOCCOC[C@H](C)NC(=O)c1ccc(Nc2cc(Oc3ccc(NC(=O)Nc4cc(C(C)(C)C)cc(NS(C)(=O)=O)c4OC)c4ccccc34)ccn2)cc1OC` [17(h), 4-[[4-[[4-[[5-tert-butyl-3-(methanesulfonamido)-2-methoxy-phenyl]carbamoylamino]-1-naphthyl]oxy]-2-pyridyl]amino]-2-methoxy-N-[(1S)-2-[2-(2-methoxyethoxy)ethoxy]-1-methyl-ethyl]benzamide], 4.39 µM.
For `COc1cc(Nc2nccc(Oc3ccc(NC(=O)Nc4cc(C(C)(C)C)cc(NS(C)(=O)=O)c4OC)c4ccccc34)n2)ccc1C(=O)NCCN1CCOCC1` [17(i), 4-[[4-[[4-[[5-tert-butyl-3-(methanesulfonamido)-2-methoxy-phenyl]carbamoylamino]-1-naphthyl]oxy]pyrimidin-2-yl]amino]-2-methoxy-N-(2-morpholinoethyl)benzamide], the IC50 turned out to be 0.594 µM.
To `COc1cc(Nc2cc(Oc3ccc(NC(=O)Nc4cc(C(C)(C)C)cc(NS(C)(=O)=O)c4OC)c4ccccc34)ccn2)ccc1C(=O)NCCN1CCOCC1(C)C` [17(k), 4-[[4-[[4-[[5-tert-butyl-3-(methanesulfonamido)-2-methoxy-phenyl]carbamoylamino]-1-naphthyl]oxy]-2-pyridyl]amino]-N-[2-(3,3-dimethylmorpholin-4-yl)ethyl]-2-methoxy-benzamide] belongs greater than 11.9 µM; to `COc1cc(Nc2cc(Oc3ccc(NC(=O)Nc4cc(C(C)(C)C)cc(NS(C)(=O)=O)c4OC)c4ccccc34)ccn2)ccc1C(=O)NCCN1CCSCC1` [17(l), 4-[[4-[[4-[[5-tert-butyl-3-(methanesulfonamido)-2-methoxy-phenyl]carbamoylamino]-1-naphthyl]oxy]-2-pyridyl]amino]-2-methoxy-N-(2-thiomorpholinoethyl)benzamide], greater than 12.1 µM.
